Row | SMILES | melting point
1 | O=C(O)c1c(-c2ccc(Cl)c(Cl)c2)csc1N1C(=O)c2ccccc2C1=O | 198 to 199 °C
2 | Cc1cc(C)c(C(C)(CO)c2ccc(C(C)C)cc2)c(O)c1C (centres undefined) | 116 to 117 °C
3 | CCCCn1cc(C(=O)C(=O)O)c2cc(-c3ccc(OC)cc3)ccc21 | 172 to 173 °C
4 | O=C(O)C(=O)Nc1cc(NC(=O)C(=O)O)cc(C(=O)O)c1 | > 320 °C
5 | CC(=O)Nc1nc2c(s1)-c1nn(C(=O)c3ccccc3)cc1CC2 | 266 to 267 °C
6 | CCCCCCC(=N)NC(=S)Nc1ccc(Br)cc1 | 112 to 113 °C
7 | COc1ccc2c(c1)C(CCNC(=O)C(F)(F)F)=C(Cc1ccccc1)C2 | 126 to 128 °C
8 | CC(C)(C)n1nnc(N)n1 | 114 to 115 °C
9 | CCOC(=O)c1c(CN(CC)CC)nc2sc3cnccc3c2c1-c1ccc(O)c(OC)c1 | 179 to 181 °C
10 | CNC1CCc2[nH]c3ccc(OCc4ccccc4)cc3c2C1 (centres undefined) | 120 to 121 °C
11 | COC(=O)c1ccc(CC(C)NCC(O)c2cccc(Cl)c2)cc1 (centres undefined) | 94 to 96 °C
12 | Clc1cc2cc[nH]c2c(Cl)c1Cl | 97.5 to 98 °C
13 | CC(C)Oc1ccc(CCCOc2nn(Cc3ccccc3)cc2CC(=O)O)c(Oc2ncc(C(F)(F)F)cc2Cl)c1 | 115 to 116 °C
14 | COc1ccc(S(=O)(=O)C(CC(=O)NO)Cc2ccccc2)cc1 (centres undefined) | 118 to 120 °C
15 | CCOc1cccc(-c2cc(F)c(NC(=O)c3ccccc3CO)c(Cl)c2)c1 | 139 to 142 °C
16 | Nc1nc(Nc2ccc(S(N)(=O)=O)cc2)sc1C(=O)c1ccc(C(=O)O)cc1 | 298 to 300 °C
17 | CCN1C(=O)C(C)(C)C(=O)N(C)c2cc(CN(CCn3cc(C)c4oc(C)cc4c3=O)Cc3cc(C)n(C)n3)ccc21 | 113 to 116 °C
18 | O=[N+]([O-])c1ccc2c(c1)OC(CO)O2 (centres undefined) | 80 to 82 °C
19 | CCCCc1ccc(NC(=O)c2ccccc2C(c2ccc(O)cc2)c2ccc(O)cc2)cc1 | 119 to 121 °C
20 | C=CCC(F)(F)C(=O)C(Cc1ccccc1)NC(=O)c1ccccc1 (centres undefined) | 98 °C
21 | COC(=O)c1sc(C)c(N)c1C | 88 to 89 °C
22 | CC1(O)c2ccccc2-c2c1c(-n1ccnc1)nc1ccc(Br)cc21 (centres undefined) | 175 to 180 °C
23 | COc1cccc(C2CCc3cc(OC)ccc3C2=O)c1 (centres undefined) | 81 to 82 °C
24 | CNCc1cc(C(=O)c2cccs2)cc(C(C)(C)C)c1O | 128 to 129 °C
25 | CCCCn1cnc2c(SCc3ccc4nsc(Br)c4c3)ncnc21 | 118 to 119 °C

Row | SMILES | melting point
26 | COc1cc(NC(=O)Nc2cnc3c(C)cc(C)cc3c2-c2ccccc2Cl)cc(OC)c1OC | 204 to 206 °C
27 | Nc1cccc(Oc2ccc(C(=O)c3cccc(C(=O)c4ccc(Oc5cccc(N)c5)cc4)c3)cc2)c1 | 147 to 149 °C
28 | Cc1cc(C#N)cc(C(=O)Nc2ccc(C#N)cn2)n1 | 279 °C
29 | O=C(C=Cc1cccc(Cl)c1)C=Cc1cccc(Cl)c1 | 120 to 121 °C
30 | CC12CCC(C(=O)Nc3ccccc3C(c3ccc(O)cc3)c3ccc(O)cc3)(OC1=O)C2(C)C (centres undefined) | 229 to 231 °C
31 | COC(=O)C1CC2c3cccc4[nH]cc(c34)CC2N(C(=O)C2CC2)C1 (centres undefined) | 276 to 278 °C
32 | O=C(NCCSCc1ccccc1)c1ccccc1 | 65 to 67 °C
33 | Cn1cc(C2(c3c4n(c5ccccc35)CCCCC4)CC(=O)NC2=O)c2ccccc21 (centres undefined) | > 300 °C
34 | C=C1N(C)C(=O)OC12CCN(CC=C(c1ccccc1)c1ccccc1)CC2 | 126 to 127 °C
35 | CCOC(=O)c1cc2c(nc1CCl)CCCCC2 | 81 to 82 °C
36 | CCOC(=O)C=Cc1ccc(C(=O)c2ccc3c(c2)C2(C)C4(C)CCC(C4)C2(C)O3)cc1 (centres undefined) | 115 to 116 °C
37 | CCc1cc(-c2ccc(F)cc2)c(O)cc1OCCCCCC(c1ccc(OCC(=O)O)cc1)c1nnn[nH]1 (centres undefined) | 102 to 104 °C
38 | CCOc1ccnc(N2CCN(C(=O)c3ccccc3C=O)CC2)n1 | 134 to 136 °C
39 | CC(C)C(=O)NC(c1ccc(C=O)cc1)C(F)(F)F (centres undefined) | 132 to 133 °C
40 | CCOc1nn(Cc2ccc(OCc3nc(-c4ccco4)oc3C)nc2)cc1CC(=O)O | 155 to 156 °C
41 | CCn1nc(-c2ccc(F)cc2)c(C(C)=O)c(Nc2cccc3ncccc23)c1=O | 218 °C
42 | N#Cc1ccc(-c2nc(CCl)co2)s1 | 146 to 147 °C
43 | CCOc1nn(-c2ccc(C(F)(F)F)cn2)cc1CCCOc1nn(C)cc1CC(=O)O | 115 to 116 °C
44 | Clc1ccc2c(c1)C(c1ccccc1)NC1=NCCN12 (centres undefined) | 210 to 213 °C
45 | CC1(C)Cc2c(c(N3CCCC3)nc3sc4c(NCc5ccncc5)ncnc4c23)CO1 | 228 to 229 °C
46 | CC(C)(C)c1ccc(NC=CS(=O)(=O)F)cc1 | 67 to 70.5 °C
47 | CN1CCN(c2cccc3ccc(NC(=O)c4ccccc4)cc23)CC1 | 173 to 175 °C
48 | COc1cc(OC)cc(OC(=O)NC(=O)C(c2ccccc2)c2ccccc2)c1 | 150 to 152 °C
49 | Oc1ccc(-c2ccc3ccc(O)cc3c2)cc1 | 210 °C

Source: a melting point compilation (Tetko et al.; mined from patent text by program, amines drawn as free bases though some values may be those of a salt)
